Experimental data published in US20070237885A1, “PROCESS FOR THE ISOLATION OF LIMONOID GLUCOSIDES FROM CITRUS” (THE TEXAS A & M UNIVERSITY SYSTEM, priority 2006, published 2007).

Experiments:
[1] = test system: cancer cells; experiment: Inhibition of cancer cells in cell culture models; format: cell-based
Text: (§1) Limon glucoside is a triterpene derivative, in which aglycone part is linked to a glucose moiety, and it is water-soluble. Citrus plants containing the above-named limonoid glucoside derivatives belong to the Rutaceae family, and include, for example, Citrus paradisi and Citrus aurantium. The fresh fruits of Citrus paradisi (Rio Red grapefruit) and Citrus aurantium (sour orange) are currently produced in large amounts as acidulants for preparing juice and pickles in various parts of the World, and thus are readily available sources for extraction of limonoid glucosides. A method or process for isolating limonoid glucosides in gram quantities was devised.

[2] = test system: DMBA-induced buccal pouch tumours; settings: hamsters; cited from earlier work
[3] = Anti-oxidant properties
Text: This offers potential advantages over the use of synthetic methods which require more complicated procedures to prepare pure limonoid compounds.

[4] = test system: MDA-MB-435 oestrogen receptor-negative human breast cancer cells; settings: MDA-MB-435 cells; [3H] thymidine incorporation; cited from earlier work
[5] = Water solubility; format: physicochemical
Text: as §1

[6] = test system: azoxymethane (AOM)-induced aberrant crypt foci (ACF); settings: dietary intake; initiation and post-initiation feeding experiments; male F344 rats; cited from earlier work
[7] = test system: 7,12-dimethylbenz[a]anthracene (DMBA)-induced buccal pouch epidermoid carcinomas; settings: cited from earlier work; for incidence of DMBA-induced buccal pouch epidermoid carcinomas: female Syrian hamsters
[8] = test system: benzo[a]pyrene-induced forestomach neoplasia; settings: mice; cited from earlier work

Molecule	inhibition of cancer cells [1]	decrease of average tumour burden [2]	anti-oxidant properties [3]	IC50, inhibition of proliferation [4] [mg/L]	also measured
CC1(C)O[C@H]2CC(=O)OC[C@]23[C@H]2CC[C@@](C)([C@@H](O[C@@H]4O[C@H](CO)[C@@H](O)[C@H](O)[C@H]4O)c4ccoc4)[C@@]4(O[C@@H]4C(=O)O)[C@]2(C)C(=O)C[C@@H]13 [Compound (2), limonin-17-β-D-glucopyanoside]	exhibited inhibition	effective	exhibit anti-oxidant properties	75	water solubility [5]: water-soluble
CC1(C)O[C@H]2CC(=O)OC[C@]23[C@H]2CC[C@@]4(C)[C@H](c5ccoc5)OC(=O)[C@H]5O[C@]54[C@]2(C)C(=O)C[C@@H]13 [limonin]	–	–	–	12.5	formation of aberrant crypt foci (ACF) [6]: significantly inhibited; incidence of DMBA-induced buccal pouch epidermoid carcinomas [7]: reduced the incidence; comparative inhibition of DMBA-induced neoplasia ([7]; limonin compared with nomilin): more effective inhibitor
CC(=O)O[C@H]1CC(=O)OC(C)(C)[C@@H]2CC(=O)[C@]3(C)[C@H](CC[C@@]4(C)[C@H](c5ccoc5)OC(=O)[C@H]5O[C@]543)[C@@]12C [nomilin]	–	–	–	0.4	inhibition of benzo[a]pyrene-induced forestomach neoplasia [8]: inhibited; incidence of DMBA-induced buccal pouch epidermoid carcinomas [7]: reduced the incidence
CC1(C)OC(=O)C=C[C@]2(C)[C@H]3CC[C@@]4(C)[C@H](c5ccoc5)OC(=O)[C@H]5O[C@]54[C@]3(C)C(=O)C[C@@H]12 [obacunone]	–	–	–	–	formation of aberrant crypt foci (ACF) [6]: significantly inhibited
deacetyl nomilinic acid glucoside [Compound (3)]	exhibited inhibition	–	exhibit anti-oxidant properties	–	–
isoobacunoic-17-β-D-glucopyranoside [Compound (1)]	exhibited inhibition	–	exhibit anti-oxidant properties	–	–
nomilin 17-β-D-glucopyranoside [NG]	–	only LG was effective	–	–	–
nomilinic acid 17-β-D-glucopyranoside [NAG]	–	only LG was effective	–	–	–
